The nature of series [1]: Cytotoxicity determination in HepG2.2.15 cells (CCK-8). The class given is cell-based. Conditions: human, 6 days of compound treatment, CCK-8, highest concentration 100 μM. The gist of the method:
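HepG2.2.15 cells seeded at 5,000 cells/well in 2% FBS medium, incubated overnight at 37° C., then treated 6 days with compounds (8 points, 3-fold dilutions, top 100 μM), medium refreshed once midway. CCK-8 added for 2.5 h; A450 read against 630 nm reference; CC50 calculated, averaged over repeats.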

The test system of a further series is HBV. The series is described as follows: HBV inhibitory activity: HBV DNA in the culture medium of HepG2.2.15 cells by q-PCR. The class given is cell-based. Conditions: Hepatitis B virus, HepG2.2.15, 144 h. The method, boiled down:
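HepG2.2.15 cells in 2% FBS medium, 40,000 per well, treated 6 days with compound (medium refreshed once), eight 3-fold dilutions from 10 μM top. HBV DNA extracted from culture medium and quantified by q-PCR; EC50 averaged over repeats. Cytotoxicity run in parallel at 5,000 cells per well, top 100 μM, giving CC50.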

Setting [2] is: HepG2.2.15 cells, 6 days of compound treatment, HBV DNA in culture medium by q-PCR, highest concentration 10 μM, read-out: EC50.

Where two headings read alike, the source gives them in different places.

Usually CC50 stands for the concentration giving 50% cytotoxicity. Low values mean greater toxicity to the cells, high ones lower toxicity to the cells. Usually EC50 stands for the concentration giving half of the maximal effect. For the compound `CCOC(=O)C1=C(C2CCN(S(=O)(=O)[C@H]3C[C@H](C(=O)O)C3)CC2)NC(c2nccs2)=NC1c1cccc(F)c1Cl` (stereo partly drawn) [Compound 319B, (trans)-3-((4-(6-(2-chloro-3-fluorophenyl)-5-(ethoxycarbonyl)-2-(thiazol-2-yl)-3,6-dihydropyrimidin-4-yl)piperidin-1-yl)sulfonyl)-cyclobutanecarboxylic Acid], the CC50 at 6 days in series [1] is 31300 nM. Besides, the EC50 with HBV (setting [2]) stood at 102 nM.

On to `COC(=O)C1=C(C2CCN(S(=O)(=O)c3cn[nH]c3)CC2)NC(c2nccs2)=NC1c1ccc(F)c(F)c1Cl` (stereo not drawn) [Compound 324, methyl 6-(1-((1H-pyrazol-4-yl)sulfonyl)piperidin-4-yl)-4-(2-chloro-3,4-difluorophenyl)-2-(thiazol-2-yl)-1,4-dihydropyrimidine-5-carboxylate], for which, in series [1], the CC50 at 6 days was 9800 nM. The EC50 with HBV (setting [2]) stood at 5 nM.

Regarding `COC(=O)C1=C(C2CCN(S(=O)(=O)c3cnn(CC(O)C(F)(F)F)c3)CC2)NC(c2nccs2)=NC1c1ccc(F)c(F)c1Cl` (stereo not drawn) [Compound 325, Methyl 4-(2-chloro-3,4-difluorophenyl)-2-(thiazol-2-yl)-6-(1-((1-(3,3,3-trifluoro-2-hydroxypropyl)-1H-pyrazol-4-yl)sulfonyl)piperidin-4-yl)-1,4-dihydropyrimidine-5-carboxylate], the CC50 at 6 days in series [1] amounted to 7900 nM. Further, the EC50 in the series on HBV (setting [2]) worked out at 5 nM.

Compound `CCOC(=O)C1=C(C2CCN(S(=O)(=O)[C@H]3C[C@H](C(=O)O)C3)CC2)NC(c2nccs2)=NC1c1ccc(F)cc1Cl` (stereo partly drawn) [Compound 329B, (trans)-3-((4-(6-(2-Chloro-4-fluorophenyl)-5-(ethoxycarbonyl)-2-(thiazol-2-yl)-3,6-dihydropyrimidin-4-yl)piperidin-1-yl)sulfonyl)cyclobutane-carboxylic Acid] came in with a CC50 at 6 days in series [1] of 60000 nM. In addition, the EC50 in the series on HBV (setting [2]) was determined as 69 nM.

The compound `COC(=O)C1=C(C2CCN(S(=O)(=O)[C@H]3C[C@H](C(=O)O)C3)CC2)NC(c2nccs2)=NC1c1cccc(F)c1Cl` (stereo partly drawn) [Compound 331C, (trans)-3-((4-(6-(2-Chloro-3-fluorophenyl)-5-(methoxycarbonyl)-2-(thiazol-2-yl)-3,6-dihydropyrimidin-4-yl)piperidin-1-yl)sulfonyl)cyclobutane-carboxylic Acid] registered a CC50 at 6 days in series [1] above 100000 nM. In addition, in the series on HBV (setting [2]), the EC50 came to 192 nM.

Turning to `CCOC(=O)C1=C(C2CCN(S(=O)(=O)[C@H]3C[C@H](C(=O)O)C3)CC2)NC(c2nccs2)=NC1c1ccc(F)cc1Br` (stereo partly drawn) [Compound 333B, (trans)-3-((4-(6-(2-bromo-4-fluorophenyl)-5-(ethoxycarbonyl)-2-(thiazol-2-yl)-3,6-dihydropyrimidin-4-yl)piperidin-1-yl)sulfonyl)cyclobutane-1-carboxylic Acid], in series [1], the CC50 at 6 days was 33100 nM. For the same compound, the EC50 in the series with HBV (setting [2]) was 35 nM.

Compound `CCOC(=O)C1=C([C@H]2CC[C@H](C(=O)O)CC2)NC(c2nccs2)=NC1c1ccc(F)c(F)c1Br` (stereo partly drawn) [Compound 347B, (trans)-4-(6-(2-bromo-3,4-difluorophenyl)-5-(ethoxycarbonyl)-2-(thiazol-2-yl)-3,6-dihydropyrimidin-4-yl)cyclohexanecarboxylic Acid] yielded a CC50 at 6 days in series [1] of 31400 nM. The EC50 in the series with HBV (setting [2]) amounted to 110 nM.

Compound `COC(=O)C1=C(C23CC(C(C)O)(C2)C3)NC(c2nccs2)=NC1c1ccc(F)cc1Cl` (stereo not drawn) [Compound 348B, Methyl 4-(2-chloro-4-fluorophenyl)-6-(3-(1-hydroxyethyl)bicyclo[1.1.1]pentan-1-yl)-2-(thiazol-2-yl)-1,4-dihydropyrimidine-5-carboxylate] gave a CC50 at 6 days in series [1] of 25000 nM. Moreover, the EC50 with HBV (setting [2]) is 63 nM.

Consider `CCOC(=O)C1=C(C2CCN(S(=O)(=O)[C@H]3C[C@H](C(=O)O)C3)CC2)NC(c2ncc(F)cc2F)=NC1c1ccc(F)c(F)c1Cl` (stereo partly drawn) [Compound 352B], for which the CC50 at 6 days in series [1] came out at 29400 nM. The concentration for a half-maximal effect (EC50) in the series on HBV (setting [2]) was found to be 11 nM.

In series [1], `COC(=O)C1=C(C2CCN(S(=O)(=O)[C@H]3C[C@H](CO)C3)CC2)NC(c2nccs2)=N[C@@H]1c1ccc(F)cc1Cl` [Compound 357A, (trans)-Methyl 4-(2-chloro-4-fluorophenyl)-6-(1-((3-(hydroxymethyl)cyclobutyl)sulfonyl)piperidin-4-yl)-2-(thiazol-2-yl)-1,4-dihydropyrimidine-5-carboxylate] came in with a CC50 at 6 days of 13600 nM. Also, the EC50 in the series on HBV (setting [2]) was found to be 37 nM.

Compound `COC(=O)C1=C([C@H]2CC[C@H](S(=O)(=O)NCCC(C)(C)O)CC2)NC(c2nccs2)=NC1c1ccc(F)c(F)c1Cl` (stereo partly drawn) [Compound 358B, (trans)-Methyl 4-(2-chloro-3,4-difluorophenyl)-6-(4-(N-(3-hydroxy-3-methylbutyl)sulfamoyl)cyclohexyl)-2-(thiazol-2-yl)-1,4-dihydropyrimidine-5-carboxylate] gave a CC50 at 6 days in series [1] of 12500 nM. Besides, the EC50 with HBV (setting [2]) amounted to 59 nM.

For the compound `COC(=O)C1=C(C2CCN(S(=O)(=O)c3cnn(C[C@@H](C)O)c3)CC2)NC(c2nccs2)=NC1c1ccc(F)cc1Cl` (stereo partly drawn) [Compound 360C, methyl 4-(2-chloro-4-fluorophenyl)-6-(1-((1-((R)-2-hydroxypropyl)-1H-pyrazol-4-yl)sulfonyl)piperidin-4-yl)-2-(thiazol-2-yl)-1,4-dihydropyrimidine-5-carboxylate], in series [1], the midpoint of cytotoxicity, the CC50 at 6 days, lay at 17000 nM. Moreover, the EC50 with HBV worked out at 17 nM.

Take `COC(=O)C1=C(C2CCN(S(=O)(=O)c3cnn(C[C@H](C)O)c3)CC2)NC(c2nccs2)=NC1c1ccc(F)cc1Cl` (stereo partly drawn) [Compound 360D, methyl 4-(2-chloro-4-fluorophenyl)-6-(1-((1-((S)-2-hydroxypropyl)-1H-pyrazol-4-yl)sulfonyl)piperidin-4-yl)-2-(thiazol-2-yl)-1,4-dihydropyrimidine-5-carboxylate]: the CC50 at 6 days in series [1] stood at 20400 nM. Further, the EC50 in the series on HBV (setting [2]) amounted to 105 nM.

Take `COC(=O)C1=C([C@@H]2CCN(S(=O)(=O)CC(F)(F)F)C2)NC(c2nccs2)=NC1c1ccc(F)cc1Cl` (stereo partly drawn) [Compound 364, Methyl 4-(2-chloro-4-fluorophenyl)-2-(thiazol-2-yl)-6-((R)-1-((2,2,2-trifluoroethyl)sulfonyl)pyrrolidin-3-yl)-1,4-dihydropyrimidine-5-carboxylate]: the CC50 at 6 days in series [1] is above 100000 nM. Moreover, in the series on HBV (setting [2]), the EC50 is 208 nM.

In series [1], `COC(=O)C1=C(C23CC(NS(=O)(=O)CCO)(C2)C3)NC(c2nccs2)=NC1c1ccc(F)cc1Cl` (stereo not drawn) [Compound 390B, Methyl 4-(2-chloro-4-fluorophenyl)-6-(3-(2-hydroxyethylsulfonamido)bicyclo[1.1.1]pentan-1-yl)-2-(thiazol-2-yl)-1,4-dihydropyrimidine-5-carboxylate] gave a CC50 at 6 days of 45300 nM. The EC50 in the series on HBV (setting [2]) is 54 nM.

The compound `COC(=O)C1=C(C23CC(NC(C)=O)(C2)C3)NC(c2nccs2)=NC1c1ccc(F)cc1Cl` (stereo not drawn) [Compound 391B, Methyl 6-(3-acetamidobicyclo[1.1.1]pentan-1-yl)-4-(2-chloro-4-fluorophenyl)-2-(thiazol-2-yl)-1,4-dihydropyrimidine-5-carboxylate] had a CC50 at 6 days in series [1] of 46800 nM. In the series on HBV (setting [2]), the EC50 worked out at 68 nM.

In turn, `COC(=O)C1=C(C23CC(NS(=O)(=O)CC(O)CO)(C2)C3)NC(c2nccs2)=NC1c1ccc(F)cc1Cl` (stereo not drawn) [Compound 393B, Methyl 4-(2-chloro-4-fluorophenyl)-6-(3-(2,3-dihydroxypropylsulfonamido)bicyclo[1.1.1]pentan-1-yl)-2-(thiazol-2-yl)-1,4-dihydropyrimidine-5-carboxylate] showed a CC50 at 6 days in series [1] of 85000 nM. Further, the EC50 in the series with HBV (setting [2]) worked out at 100 nM.

`COC(=O)C1=C(C2CCN(S(C)(=N)=O)CC2)NC(c2nccs2)=NC1c1ccc(F)cc1Cl` (stereo not drawn) [Compound 401B, Methyl 4-(2-chloro-4-fluorophenyl)-6-(1-(S-methylsulfonimidoyl)piperidin-4-yl)-2-(thiazol-2-yl)-1,4-dihydropyrimidine-5-carboxylate]: the midpoint of cytotoxicity in series [1], the CC50 at 6 days, lay at 56200 nM. In the series with HBV (setting [2]), the EC50 was found to be 29 nM.

For `COC(=O)C1=C(C23CC(NS(=O)(=O)C4CNC4)(C2)C3)NC(c2nccs2)=NC1c1ccc(F)c(F)c1Cl` (stereo not drawn) [Compound 406, Methyl 6-(3-(azetidine-3-sulfonamido)bicyclo[1.1.1]pentan-1-yl)-4-(2-chloro-3,4-difluorophenyl)-2-(thiazol-2-yl)-1,4-dihydropyrimidine-5-carboxylate], the midpoint of cytotoxicity in series [1], the CC50 at 6 days, lay at 5600 nM. In addition, the EC50 in the series with HBV (setting [2]) was determined as 600 nM.

Regarding `CCOC(=O)C1=C(C2CCN(S(=O)(=O)C3CC(C)(C(=O)O)C3)CC2)NC(c2nccs2)=NC1c1ccc(F)cc1C` (stereo not drawn) [Compound 420A, (trans)-3-((4-(5-(Ethoxycarbonyl)-6-(4-fluoro-2-methylphenyl)-2-(thiazol-2-yl)-3,6-dihydropyrimidin-4-yl)piperidin-1-yl)sulfonyl)-1-methylcyclobutanecarboxylic Acid], the CC50 at 6 days in series [1] was 20800 nM. Besides, in the series with HBV (setting [2]), the EC50 is 76 nM.

On to `COC(=O)C1=C(C2CCN(S(=O)(=O)C[C@H]3CC[C@H](C(=O)O)CC3)CC2)NC(c2nccs2)=NC1c1ccc(F)cc1Cl` (stereo partly drawn) [Compound 422, trans-4-(((4-(6-(2-chloro-4-fluorophenyl)-5-(methoxycarbonyl)-2-(thiazol-2-yl)-3,6-dihydropyrimidin-4-yl)piperidinyl)sulfonyl)methyl)cyclohexane-1-carboxylic Acid], for which the midpoint of cytotoxicity in series [1], the CC50 at 6 days, lay at 26900 nM. Further, the EC50 with HBV (setting [2]) is 27 nM.

Values taken from patent publication US11639350B2, “Heteroaryldihydropyrimidine derivatives and methods of treating hepatitis B infections” (Janssen Pharmaceutica NV, priority 2018, dated 2023).
